pEC50: −log10 of the molar value.

One test deals with HT-1080 cells. As to the kind of experiment: HT-1080 cell viability assay (ferroptosis induced by RSL3, Cell Titer-Glo). The format is cell-based. Conditions: Homo sapiens, HT-1080, 20 h, ferroptosis inducer RSL3, 20 hours, ferroptosis inhibitory activity, Table 2. An outline of the steps: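 EC50 fitted by sigmoidal dose-response regression on luminescent viability data normalized to untreated cells. Compounds ran as a 10-point, 3-fold series from 1.1 μM alongside RSL3 for 20 hours, after overnight seeding.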
(In general: Cellular ATP, detected with luciferase, serves as a proxy for viable cell number.)
Turning to `Cc1nc(N2CC(C)OC(C)C2)ccc1NCCCC1CCC(N)CC1` (stereo not shown) [Compound 526, N-(3-((1r,4s)-4-aminocyclohexyl)propyl)-6-(2,6-dimethylmorpholino)-2-methyl pyridin-3-amine], the negative logarithm of the EC50 (pEC50) (in general, the EC50 on a negative log10 scale, so that one unit is a factor of ten) was 7.00 to 10.00.

`COC1CCN(c2ccc(NC3CC4(CC(N)C4)C3)c(C)n2)CC1` (stereo not shown) [Compound 527] had a pEC50 of 7.00 to 10.00.

For the compound `Cc1nc(N2C3CCC2COC3)ccc1NC1CC2(CC(N)C2)C1` (stereo not shown) [Compound 528, N2-(6-(3-oxa-8-azabicyclo[3.2.1]octan-8-yl)-2-methylpyridin-3-yl)spiro[3.3]heptane-2,6-diamine], the pEC50 is 6.00 to 7.00.

Compound `COC(C)(C)C1CCN(c2ccc(NC3CC4(CC(N)C4)C3)c(C)n2)CC1` (stereo not shown) [Compound 529, N2-(6-(4-(2-methoxypropan-2-yl)piperidin-1-yl)-2-methylpyridin-3-yl)spiro[3.3]-heptane-2,6-diamine] had a pEC50 of 7.00 to 10.00.

Compound `Cc1nc(N2CCC3(CC2)COC3)ccc1NC1CC2(CC(N)C2)C1` (stereo not shown) [Compound 530, 2-N-(2-methyl-6-{2-oxa-7-azaspiro[3.5]nonan-7-yl}pyridin-3-yl)spiro[3.3]heptane-2,6-diamine] had a pEC50 of 5.00 to 6.00.

In turn, `CCN1C(C)CN(c2ccc(NC[C@H]3CC[C@H](N)CC3)cc2)CC1C` (stereo partly shown) [Compound 532, N-(((1r,4r)-4-aminocyclohexyl)methyl)-4-(4-ethyl-3,5-dimethylpiperazin-1-yl)aniline] showed a pEC50 of 6.00 to 7.00.

As to `Cc1nc(N2CCC3(CCCOC3)CC2)ccc1NC1CC2(CC(N)C2)C1` (stereo not shown) [Compound 533, N2-(2-methyl-6-(2-oxa-9-azaspiro [5.5]undecan-9-yl)pyridin-3-yl)spiro[3.3]heptane-2,6-diamine], the pEC50 is 7.00 to 10.00.

On to `Cc1nc(N2CC(C)OC(C)C2)ccc1NC1CCC(CCCN)CC1` (stereo not shown) [Compound 534, N-(4-(3-aminopropyl)cyclohexyl)-6-(2,6-dimethylmorpholino)-2-methylpyridin-3-amine], for which the negative logarithm of the EC50 (pEC50) is 7.00 to 10.00.

On to `COC1(C)CCN(c2ccc(NC3CC4(CC(N)C4)C3)c(C)n2)CC1` (stereo not shown) [Compound 536, N2-(6-(4-methoxy-4-methylpiperidin-1-yl)-2-methylpyridin-3-yl)spiro[3.3]heptane-2,6-diamine], for which the pEC50 was 7.00 to 10.00.

For `Cc1nc(N2CCC(N3C[C@@H](C)O[C@@H](C)C3)CC2)ccc1NC1CC2(CC(N)C2)C1` (stereo partly drawn) [Compound 537, N2-(6-(4-((2S,6R)-2,6-dimethylmorpholino)piperidin-1-yl)-2-methylpyridin-3-yl)spiro[3.3]heptane-2,6-diamine], the negative logarithm of the EC50 (pEC50) was 6.00 to 7.00.

`Cc1nc(N2CCOCC2)ccc1NC1C2CC3CC1CC(CN)(C3)C2` (stereo not shown) [Compound 538A, N-((2r,5s)-5-(aminomethyl)adamantan-2-yl)-2-methyl-6-morpholinopyridin-3-amine]: the pEC50 was 7.00 to 10.00.

Compound `Cc1nc(N2C[C@@H](C)N(CC(F)(F)F)[C@@H](C)C2)ccc1NC1C2CC3CC1CC(N)(C3)C2` (stereo partly drawn) [Compound 540, N4-(6-((3R,5S)-3,5-dimethyl-4-(2,2,2-trifluoroethyl)piperazin-1-yl)-2-methylpyridin-3-yl)adamantane-1,4-diamine] had a pEC50 of 7.00 to 10.00.

In turn, `Cc1nc(N2C[C@@H](C)N(CC(F)(F)F)[C@@H](C)C2)ccc1NC1CCC(N)C1` (stereo partly drawn) [Compound 541, N1-(6-((3R,5S)-3,5-dimethyl-4-(2,2,2-trifluoroethyl)piperazin-1-yl)-2-methylpyridin-3-yl)cyclopentane-1,3-diamine] showed a negative logarithm of the EC50 (pEC50) of 7.00 to 10.00.

`Cc1nc(N2C[C@@H](C)N(CC(F)(F)F)[C@@H](C)C2)ccc1NC1CCC(N)CC1` (stereo partly shown) [Compound 542] gave a negative-log EC50 (pEC50) of 7.00 to 10.00.

On to `Cc1nc(N2C[C@@H](C)N(CC(F)(F)F)[C@@H](C)C2)ccc1NC[C@H]1CC[C@H](N)CC1` [Compound 543, N-(((1r,4R)-4-aminocyclohexyl)methyl)-6-((3R,5S)-3,5-dimethyl-4-(2,2,2-trifluoroethyl)piperazin-1-yl)-2-methylpyridin-3-amine], for which the negative-log EC50 (pEC50) is 7.00 to 10.00.

`CCc1nc(N2C[C@@H](C)O[C@@H](C)C2)ccc1NC[C@H]1CC[C@H](N)CC1` [Compound 544, N-(((1r,4R)-4-aminocyclohexyl)methyl)-6-((2S,6R)-2,6-dimethylmorpholino)-2-ethylpyridin-3-amine] showed a pEC50 of 7.00 to 10.00.

In the case of `CCc1nc(N2C[C@@H](C)O[C@@H](C)C2)ccc1NC1CC2(CC(N)C2)C1` (stereo partly drawn) [Compound 545, N^2-(6-((2S,6R)-2,6-dimethylmorpholino)-2-ethylpyridin-3-yl)spiro[3.3]heptane-2,6-diamine], the pEC50 is 7.00 to 10.00.

Regarding `CC[C@@H]1CN(c2ccc(NC3CC4(CC(N)C4)C3)c(C)n2)C[C@H](C)O1` (stereo partly drawn) [Compound 546, N2-(6-((2R,6S)-2-ethyl-6-methylmorpholino)-2-methylpyridin-3-yl)spiro[3.3]heptane-2,6-diamine], the pEC50 is 7.00 to 10.00.

In the case of `CC[C@@H]1CN(c2ccc(NC3CC4(CC(N)C4)C3)c(C)n2)C[C@@H](C)O1` (stereo partly drawn) [Compound 547, N^2-(6-((2R,6R)-2-ethyl-6-methylmorpholino)-2-methylpyridin-3-yl)spiro[3.3]heptane-2,6-diamine], the pEC50 is 7.00 to 10.00.

The compound `CC[C@@H]1CN(c2ccc(NC[C@H]3CC[C@H](N)CC3)c(C)n2)C[C@@H](CC)O1` [Compound 548, N-(((1r,4R)-4-aminocyclohexyl)methyl)-6-((2R,6R)-2,6-diethylmorpholino)-2-methylpyridin-3-amine] gave a negative-log EC50 (pEC50) of 7.00 to 10.00.

In turn, `CC[C@@H]1CN(c2ccc(NC3CC4(CC(N)C4)C3)c(C)n2)C[C@H](CC)O1` (stereo partly shown) [Compound 549] gave a pEC50 of 7.00 to 10.00.

With `CC[C@@H]1CN(c2ccc(NC3CC4(CC(N)C4)C3)c(C)n2)C[C@@H](CC)O1` (stereo partly shown) [Compound 550], the pEC50 is 7.00 to 10.00.

Consider `CC[C@@H]1CN(c2ccc(NC3CCC(N)CC3)c(C)n2)C[C@H](C)O1` (stereo partly drawn) [Compound 551, N1-(6-((2R,6S)-2-ethyl-6-methylmorpholino)-2-methylpyridin-3-yl)cyclohexane-1,4-diamine], for which the negative logarithm of the EC50 (pEC50) is 6.00 to 7.00.

Regarding `CC[C@@H]1CN(c2ccc(NC3CCC(N)CC3)c(C)n2)C[C@@H](CC)O1` (stereo partly drawn) [Compound 552, N1-(6-((2R,6R)-2,6-diethylmorpholino)-2-methylpyridin-3-yl)cyclohexane-1,4-diamine], the pEC50 was 7.00 to 10.00.

As to `Cc1nc(N2CC(C)OC(C)C2)ccc1NC1CC2CCC1CC2N` (stereo not shown) [Compound 553, N2-(6-(2,6-dimethylmorpholino)-2-methylpyridin-3-yl)bicyclo[2.2.2]octane-2,5-diamine], the negative-log EC50 (pEC50) is 6.00 to 7.00.

As to `Cc1nc(N2CC(C)N(C(=O)C(F)(F)F)C(C)C2)ccc1NC1CC2(CC(N)C2)C1` (stereo not shown) [Compound 554, 1-(4-(5-((6-aminospiro[3.3]heptan-2-yl)amino)-6-methylpyridin-2-yl)-2,6-dimethylpiperazin-1-yl)-2,2,2-trifluoroethan-1-one], the negative-log EC50 (pEC50) was 7.00 to 10.00.

In turn, `CC(=O)N1C(C)CN(c2ccc(NC3CC4(CC(N)C4)C3)c(C)n2)CC1C` (stereo not shown) [Compound 555, 1-(4-(5-((6-aminospiro[3.3]heptan-2-yl)amino)-6-methylpyridin-2-yl)-2,6-dimethylpiperazin-1-yl)ethan-1-one] had a negative logarithm of the EC50 (pEC50) of 7.00 to 10.00.

Staying with this test, now noted: ferroptosis inducer RSL3, 20 hours, ferroptosis inhibitory activity, Table 2.
In the case of `CC1CN(c2ccc(NC3CC4(CC(N)C4)C3)cc2F)CC(C)N1CC(F)(F)F` (stereo not shown) [Compound 535], the pEC50 is 7.00 to 10.00.
